We go through 19 compounds from ChEMBL document CHEMBL1157049, “Synthesis and study of some new 1,3-isoindoledione derivatives as potential antibacterial agents” (2010).

One experiment concerns Bacillus thuringiensis. Nature of the experiment: Antimicrobial activity Bacillus thuringiensis at 2 mg/mL after 24 hrs by agar diffusion technique. Type of experiment: functional. The note with it: read-out: DIZ. (Agar diffusion results depend on both activity and mobility in agar.)
The test system of the next experiment is Escherichia coli. Nature of the experiment: Antimicrobial activity Escherichia coli at 2 mg/mL after 24 hrs by agar diffusion technique. Type of experiment: functional. As to conditions: read-out: DIZ.

Take `O=C(c1ccc(N2C(=O)C3C4c5ccccc5C(c5ccccc54)C3C2=O)cc1)C(Br)Br` (stereo not drawn): the zone of inhibition at 2000 µg/mL in the experiment with Bacillus thuringiensis was determined as 17 mm; in the experiment on Escherichia coli, 14 mm.

For `O=C1C2C3c4ccccc4C(c4ccccc43)C2C(=O)N1c1ccccc1S` (stereo not drawn), the figures for the zone of inhibition at 2000 µg/mL with Bacillus thuringiensis and with Escherichia coli were 18 mm and 16 mm, respectively.

Turning to `Cc1ccc2nc(N3C(=O)C4C5c6ccccc6C(c6ccccc65)C4C3=O)sc2c1` (stereo not drawn), the figures for the zone of inhibition at 2000 µg/mL in the experiment with Bacillus thuringiensis and in the experiment with Escherichia coli were 26 mm and 29 mm, respectively.

As for `O=C1C2C3c4ccccc4C(c4ccccc43)C2C(=O)N1c1ccccc1O` (stereo not drawn), the zone of inhibition at 2000 µg/mL in the experiment with Bacillus thuringiensis was 17 mm; in the experiment on Escherichia coli it was 16 mm.

As for `O=C1C2C3c4ccccc4C(c4ccccc43)C2C(=O)N1c1ccc(/N=N/c2ccccc2)cc1` (stereo not drawn), the zone of inhibition at 2000 µg/mL came to 13 mm in the experiment on Bacillus thuringiensis and 14 mm with Escherichia coli.

As to `COC(=O)n1c(C2C3c4ccccc4C(c4ccccc43)C2C(=O)O)nc2ccccc21` (stereo not drawn), the values for the zone of inhibition at 2000 µg/mL in the experiment with Bacillus thuringiensis and in the experiment on Escherichia coli were 17 mm and 13 mm, respectively.

For `O=C1C2C3c4ccccc4C(c4ccccc43)C2C(=O)N1c1nc[nH]n1` (stereo not drawn), the zone of inhibition at 2000 µg/mL with Bacillus thuringiensis came to 17 mm; in the experiment on Escherichia coli it was 15 mm.

Consider `Nc1ccccc1N1C(=O)C2C3c4ccccc4C(c4ccccc43)C2C1=O` (stereo not drawn), for which the zone of inhibition at 2000 µg/mL with Bacillus thuringiensis stood at 17 mm; in the experiment on Escherichia coli it was 12 mm.

With `CC(=O)Nc1ccccc1N1C(=O)C2C3c4ccccc4C(c4ccccc43)C2C1=O` (stereo not drawn), the zone of inhibition at 2000 µg/mL worked out at 18 mm in the experiment with Bacillus thuringiensis and 16 mm in the experiment with Escherichia coli.

For the compound `O=C1C2C3c4ccccc4C(c4ccccc43)C2C(=O)N1C(CO)(CO)CO` (stereo not drawn), the figures for the zone of inhibition at 2000 µg/mL in the experiment with Bacillus thuringiensis and in the experiment with Escherichia coli were 15 mm and 14 mm, respectively.

In the case of `CCOC(=O)c1c(N2C(=O)C3C4c5ccccc5C(c5ccccc54)C3C2=O)sc2c1CCCC2` (stereo not drawn), the zone of inhibition at 2000 µg/mL in the experiment on Bacillus thuringiensis worked out at 15 mm; in the experiment on Escherichia coli, 14 mm.

For the compound `Cc1ccc(/N=N/c2ccc(N3C(=O)C4C5c6ccccc6C(c6ccccc65)C4C3=O)cc2)cc1` (stereo not drawn), the zone of inhibition at 2000 µg/mL with Bacillus thuringiensis was 11 mm; in the experiment with Escherichia coli, 14 mm.

On to `CC1(C)S[C@@H]2[C@H](NC(=O)[C@H](N)c3ccccc3)C(=O)N2[C@H]1C(=O)O` [AMPICILLIN], for which the zone of inhibition at 2000 µg/mL with Bacillus thuringiensis came to 18 mm; with Escherichia coli, 19 mm.

In the case of `O=C(c1ccc(N2C(=O)C3C4c5ccccc5C(c5ccccc54)C3C2=O)cc1)c1nc2ccccc2[nH]1` (stereo not drawn), the values for the zone of inhibition at 2000 µg/mL with Bacillus thuringiensis and with Escherichia coli were 20 mm and 23 mm, respectively.

With `CC(=O)c1ccc(N2C(=O)C3C4c5ccccc5C(c5ccccc54)C3C2=O)cc1` (stereo not drawn), the zone of inhibition at 2000 µg/mL with Bacillus thuringiensis was found to be 15 mm; with Escherichia coli, 12 mm.

Take `O=C1/C(=N\c2ccccc2N2C(=O)C3C4c5ccccc5C(c5ccccc54)C3C2=O)C=C(Nc2ccccc2N2C(=O)C3C4c5ccccc5C(c5ccccc54)C3C2=O)c2ccccc21` (stereo not drawn): the zone of inhibition at 2000 µg/mL in the experiment with Bacillus thuringiensis and in the experiment on Escherichia coli was 17 mm in each case.

For `O=C(N[C@H](CO)[C@H](O)c1ccc([N+](=O)[O-])cc1)C(Cl)Cl` [CHLORAMPHENICOL], the zone of inhibition at 2000 µg/mL with Bacillus thuringiensis was 23 mm; in the experiment with Escherichia coli, 20 mm.

For the compound `O=C1C2C3c4ccccc4C(c4ccccc43)C2C(=O)N1c1ccccc1SSc1ccccc1N1C(=O)C2C3c4ccccc4C(c4ccccc43)C2C1=O` (stereo not drawn), the zone of inhibition at 2000 µg/mL in the experiment with Bacillus thuringiensis and in the experiment with Escherichia coli was 17 mm throughout.

On to `Cc1ccc(S(=O)(=O)Oc2ccccc2N2C(=O)C3C4c5ccccc5C(c5ccccc54)C3C2=O)cc1` (stereo not drawn), for which the zone of inhibition at 2000 µg/mL stood at 15 mm in the experiment on Bacillus thuringiensis and 18 mm in the experiment on Escherichia coli.
